PubChem BioAssay (NCI)
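Dose response: 5 concentrations. Exposure: 48 h. Format: 96-well plates. Endpoint: linear interpolation; highest concentration if not reached. GI50 marks 50% less growth. The concentration for full growth arrest is given as TGI.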

Columns and labels:
Test in all cases: inhibition of tumour cell growth, NCI panel, 48 h
[1] = test system: U251 CNS
[2] = test system: SNB-75 CNS
[3] = test system: KM12 colon
[4] = test system: OVCAR-4 ovarian
[5] = test system: RPMI-8226 leukemia
[6] = test system: IGROV1 ovarian
[7] = test system: HOP-62 NSCLC
[8] = test system: OVCAR-3 ovarian
[9] = test system: BT-549 breast
[10] = test system: SK-OV-3 ovarian

Row | SMILES | TGI [1] [µM] | TGI [2] [µM] | TGI [3] [µM] | TGI [4] [µM] | TGI [5] [µM] | TGI [6] [µM] | TGI [7] [µM] | TGI [8] [µM] | TGI [9] [µM] | TGI [10] [µM] | GI50 [1] [µM] | GI50 [2] [µM] | GI50 [3] [µM] | GI50 [4] [µM] | GI50 [5] [µM] | GI50 [6] [µM] | GI50 [10] [µM] | GI50 [7] [µM] | GI50 [8] [µM]
1 | c1ccc(Nc2nnc(-c3nsc4ccccc34)o2)cc1 | > 100 | 78.4 | > 100 | > 100 | > 100 | > 100 | > 100 | 45.2 |  |  |  |  |  |  |  |  |  |  | 
2 | Cc1c(F)c(N)c2c(=O)cc(-c3ccc(NC(=O)C(N)CCCN=C(N)N)c(F)c3)oc2c1F (centres undefined) | > 55.3 |  | 99.7 | 40.7 | > 100 | 10.8 | 99.6 |  | 51.5 | > 68.2 |  |  |  |  |  |  |  |  | 
3 | O=C(NN1C(=O)C=CC1=O)c1ccccc1Nc1ccccc1C(=O)NN1C(=O)C=CC1=O | > 100 | > 100 | > 100 | > 100 | > 100 | > 100 | > 100 | > 100 | > 100 |  |  |  |  |  |  |  |  |  | 
4 | Cc1cccc2c1C/C(=C\c1cccc(C)c1C(=O)O)C2=O | > 100 | > 100 | > 100 | > 100 | > 100 | > 100 | > 100 | > 100 | > 100 |  |  |  |  |  |  |  |  |  | 
5 | COc1cc(C(SCc2ccccc2)SCc2ccccc2)ccc1O | > 10 | > 10 | > 10 |  | > 10 | > 10 | > 10 | > 10 |  | > 10 |  |  |  |  |  |  |  |  | 
6 | O=C(O)/C=C/C(=O)O | > 100 | > 100 | > 100 | > 100 | > 100 | > 100 | > 100 | > 100 |  |  |  |  |  |  |  |  |  |  | 
7 | COc1ccc(C2c3cc4c(cc3OC(N3CCCCC3)C2C)OCO4)cc1 (centres undefined) |  | > 100 | > 100 |  | > 100 | > 100 | > 100 | > 100 |  |  |  |  |  |  |  |  |  |  | 
8 | CC(=O)OCC1OC(c2nnc(C)o2)=CC(OC(C)=O)C1OC(C)=O (centres undefined) | > 100 | > 100 | > 100 | > 100 | > 100 | > 100 | > 100 | > 100 | > 100 |  |  |  |  |  |  |  |  |  | 
9 | CN1CC2CC(C1)c1cccc(=O)n1C2 (centres undefined) | > 100 | > 100 | > 100 | > 100 |  | > 100 | > 100 | > 100 | > 100 | > 100 |  |  |  |  |  |  |  |  | 
10 | CC(=O)NC1=C(C)C(=O)c2c(nc3n2CC[C@H]3OC(C)=O)C1=O | 3.22 | 9.18 | 3.52 | 3 | 7.4 | 8.71 | 28.3 | 1.4 | 3.01 |  |  |  |  |  |  |  |  |  | 
11 | O=C(c1ccccc1)N1C(=S)N(c2ccc([N+](=O)[O-])cc2)C(=Nc2ccccc2)C1=Nc1ccccc1 | > 100 | > 100 | > 100 |  | > 100 | > 100 | > 100 | > 100 | > 100 | > 100 |  |  |  |  |  |  |  |  | 
12 | O=C1/C(=C/c2ccco2)NC(=S)N1CN1CCOCC1 | > 100 | > 100 | > 100 | > 100 | > 100 | > 100 | > 100 | > 100 |  | > 100 |  |  |  |  |  |  |  |  | 
13 | CN1CCCCC(C(O)(c2ccccc2)c2ccccc2)C1=O (centres undefined) | > 100 | > 100 | > 100 | > 100 | 65.7 | > 100 | > 100 | > 100 |  | > 100 |  |  |  |  |  |  |  |  | 
14 | CCS(=O)(=O)c1c2cc(OC)ccc2nc2ccc(OC)cc12 | > 100 | > 100 | > 100 | > 100 |  | > 100 | > 100 | > 100 |  | > 100 |  |  |  |  |  |  |  |  | 
15 | CC[C@@H]1CC[C@@H]2[C@H](CC[C@]3(C)[C@@H](OS(=O)(=O)c4ccc(C)cc4)CC[C@@H]23)[C@H]1CO | > 100 | > 100 | > 100 | > 100 | > 100 | > 100 | > 100 | > 100 | > 100 |  |  |  |  |  |  |  |  |  | 
16 | COC1/C=C/C(C)C(C(C)C(OC)C(C)CCC(=O)C(C)C(C/C=C/N(C)C=O)OC)OC(=O)/C=C/C=C(\C)CC(OC)C(OC)C2=CC(=O)O[C@@H](C(C)C(OC)CC(OC)/C=C/C(C)C(O)C1)[C@H]2O (some centres undefined) | 0.301 |  | 3.02 | 0.365 |  |  | 0.218 | 0.277 | 0.544 |  |  |  |  |  |  |  |  |  | 
17 | N#Cc1c(N2CCN(c3ccc([N+](=O)[O-])cc3)CC2)[n+](=O)c2ccc(Cl)cc2n1[O-] | 5.81 | > 27.9 | 13.3 | 9.52 |  | 2.01 |  |  | 1.61 | > 23.9 |  |  |  |  |  |  |  |  | 
18 | CCOC(=O)N(C)C1(c2ccccc2)CCN(CCCC(=O)c2ccc(F)cc2)CC1 | > 100 |  | 81.1 | > 100 | 63.8 | > 100 | > 100 | > 100 |  | > 100 |  |  |  |  |  |  |  |  | 
19 | COc1ccc2c(c1)-c1nn(CCN(C)C)c3ccc(C(=O)NCCCN(C)CCCNC(=O)c4ccc5c6c(nn5CCN(C)C)-c5cc(OC)ccc5Nc46)c(c13)N2 | 0.825 | 0.393 |  | 0.827 | 0.0768 | 1.47 | 1.32 | 3.23 | 0.948 | 3.18 |  |  |  |  |  |  |  |  | 
20 | COC(=O)n1c(CBr)c(Br)c2ccccc21 | 82.4 | 47.1 | > 100 | 66.2 | 58.7 | 93.1 | 54 | 50.9 |  |  |  |  |  |  |  |  |  |  | 
21 | COc1cc(C2S/C(=C/c3ccccc3)C(=O)N2c2cccc([N+](=O)[O-])c2)cc(OC)c1OC (centres undefined) | > 100 |  | > 100 | > 100 |  |  | > 100 |  | > 100 | > 100 |  |  |  |  |  |  |  |  | 
22 | O=C(Nc1cccc(-n2ccc3c(NC(=O)c4ccccc4)nccc32)c1)c1cc(N2CCOCC2)cc(C(F)(F)F)c1 | > 100 | 0.678 |  | > 100 |  | > 100 | > 100 | 0.0605 |  | > 100 | 0.118 | 0.0362 | 0.0628 | 0.175 | 0.223 | 0.235 | 0.142 | 0.168 | 0.0259
23 | C#CCOC(=O)C(N)CCCN=C(N)N (centres undefined) | > 100 | > 100 | > 100 | > 100 | > 100 | > 100 | > 100 |  | > 100 |  |  |  |  |  |  |  |  |  | 
24 | CCOC(=O)C(=Cn1c(=S)[nH]c2ccc([N+](=O)[O-])cc21)C(=O)OCC | > 100 | > 100 | > 100 | > 100 | > 100 | > 100 | > 100 | > 100 |  | > 100 |  |  |  |  |  |  |  |  | 
